Measured values reported in ChEMBL document CHEMBL4325859, “Research advances on anticancer activities of matrine and its derivatives: An updated overview” (Eur J Med Chem, 2019).
≈ marks a conversion by molar mass, not a printed value.

Key:
A549 = test: Antiproliferative activity against human A549 cells at 2 g/L after 48 hrs by MTT assay relative to control; format: functional
RPMI-8226 [1] = test: Induction of apoptosis in human RPMI8226 cells at 500 mg/L after 48 hrs by Annexin V/propidium iodide staining based flow cytometry (reference value: 3.02 +/- 1.19%); format: functional
HT-29 [2] = test: Growth inhibition of human HT-29 cells at 32 ml/L after 36 hrs by MTT assay relative to control; format: functional
HL-60 = test: Induction of apoptosis in human HL60 cells after 24 hrs by Annexin V-FITC/propidium iodide staining based flow cytometry relative to control; format: functional
HT-29 [3] = test: Growth inhibition of human HT-29 cells at 8 ml/L after 36 hrs by MTT assay relative to control; format: functional
SiHa = test: Antiproliferative activity against human SiHa cells after 48 hrs by CCK8 assay; format: functional, cell-based
BXPC-3 = test: Antiproliferative activity against human BxPC3 cells after 72 hrs by MTT assay; format: functional, cell-based; details: BXPC-3, 72 h
[4] = Growth inhibition of human GRC1 cells at 0.8 g/L after 24 hrs by MTT assay relative to control; format: functional; details: read-out: GI
HT-29 [5] = test: Growth inhibition of human HT-29 cells at 16 mg/ml after 48 hrs by MTT assay relative to control; format: functional; details: HT-29, 48 h, read-out: GI
SMMC-7721 = test: Antiproliferative activity against human SMMC7721 cells at 100 ug/ml after 72 hrs by MTT assay relative to control; format: functional
HT-29 [6] = test: Growth inhibition of human HT-29 cells at 4 ml/L after 48 hrs by MTT assay relative to control; format: functional
[7] = biological target: ATP-dependent translocase ABCB1 (Homo sapiens, UniProt P08183); test: Reversal of P-gp-mediated drug resistance in human MCF7/ADR cells assessed as increase in adriamycin accumulation at 0.2 mg/ml relative to control; format: cell-based
HepG2 = test: Antiproliferative activity against human HepG2 cells at 0.8 mg/ml after 48 hrs relative to control; format: functional
HeLa = test: Induction of apoptosis in human HeLa cells at 50 ug/ml after 48 hrs by Annexin V-FITC/propidium iodide staining based flow cytometry relative to control; format: functional
C-33-A [8] = test: Antiproliferative activity against human C33A cells after 48 hrs by CCK8 assay; format: functional, cell-based
PC-3 [9] = test: Induction of apoptosis in human PC3 cells assessed as late apoptotic cells at 75 mg/mL (reference value: 2.5%); format: functional
PANC-1 = test: Antiproliferative activity against human PANC1 cells by MTT assay; format: functional, cell-based
M21 [10] = test: Growth inhibition of human M21 cells assessed as cell viability at 5 mg/ml after 48 hrs by MTT assay (reference value: 98%); format: functional; details: M21, 48 h, read-out: Activity
HT-29 [11] = test: Growth inhibition of human HT-29 cells at 32 ml/L after 24 hrs by MTT assay relative to control; format: functional
SW480 = test: Antitumor activity against human SW480 cells xenografted in Balb/c mouse assessed as tumor growth inhibition at 30 mg/kg, ip everyday relative to control; format: functional; details: read-out: TGI
PC-3 [12] = test: Induction of apoptosis in human PC3 cells assessed as late apoptotic cells at […] (reference value: 2.5%); format: functional
RPMI-8226 [13] = test: Growth inhibition of human RPMI8226 cells at […] after 24 hrs relative to control; format: functional; details: RPMI-8226, 24 h, read-out: GI
KYSE-150 cell line [14] = test: Antiproliferative activity against human KYSE-150 cells assessed as cell viability at 2 mg/ml after 24 hrs by MTT assay relative to control; format: functional; details: KYSE-150, 24 h, read-out: Activity
HT-29 [15] = test: Growth inhibition of human HT-29 cells at 2 mg/ml by MTT assay relative to control; format: functional; details: read-out: GI
[16] = Growth inhibition of human GRC1 cells at 0.5 g/L after 24 hrs by MTT assay relative to control; format: functional; details: read-out: GI
HT-29 [17] = test: Synergistic growth inhibition of human HT-29 cells at 2 mg/ml cotreated with 10 ug/ml irinotecan by MTT assay relative to control; format: functional
T-24 = test: Antiproliferative activity against human T24 cells after 48 hrs by CCK8 assay; format: functional, cell-based; details: T-24, 48 h
UMR108 [18] = test: Growth inhibition of rat UMR108 cells assessed as cell proliferation at 1.5 mg/ml after 48 hrs by MTT assay (reference value: 0.404 +/- 0.008%); format: functional; details: UMR108, 48 h, read-out: Activity
MCF7 [19] = test: Antiproliferative activity against human MCF7 cells after 48 hrs relative to control; format: functional
KYSE-150 cell line [20] = test: Antiproliferative activity against human KYSE-150 cells assessed as cell viability at 2.5 mg/ml after 24 hrs by MTT assay relative to control; format: functional; details: KYSE-150, 24 h, read-out: Activity
D341 cell line [21] = test: Growth inhibition of human D341 cells at 1 mg/ml after 72 hrs by CCK8 assay relative to control; format: functional; details: D341, 72 h, read-out: GI
RPMI-8226 [22] = test: Antiproliferative activity against human RPMI8226 cells after 24 hrs by MTT assay; format: functional, cell-based; details: RPMI-8226, 24 h
D341 cell line [23] = test: Growth inhibition of human D341 cells at 2 mg/ml after 72 hrs by CCK8 assay relative to control; format: functional; details: D341, 72 h, read-out: GI
M21 [24] = test: Induction of apoptosis in human M21 cells at 0.2 mg/ml after 48 hrs by Annexin V-FITC/propidium iodide staining based flow cytometry relative to control; format: functional
CCRF-CEM = test: Antiproliferative activity against human CCRF-CEM cells after 48 hrs by WST1 assay; format: functional, cell-based
HT-29 [25] = test: Synergistic growth inhibition of human HT-29 cells at 0.5 mg/ml cotreated with 2.5 ug/ml irinotecan by MTT assay relative to control; format: functional
RPMI-8226 [26] = test: Growth inhibition of human RPMI8226 cells at 500 mg/L after 48 hrs by MTT assay relative to control; format: functional; details: RPMI-8226, 48 h, read-out: GI
RD = test: Induction of apoptosis in human RD cells at 1 mg/ml after 24 hrs by Annexin V-FITC/propidium iodide staining based flow cytometry relative to control; format: functional
MCF7 [27] = test: Antiproliferative activity against human MCF7 cells after 72 hrs relative to control; format: functional
M21 [28] = test: Induction of apoptosis in human M21 cells at 0.4 mg/ml after 48 hrs by Annexin V-FITC/propidium iodide staining based flow cytometry relative to control; format: functional
C-33-A [29] = test: Induction of apoptosis in human C33A cells at 100 ug/ml after 48 hrs by Annexin V-FITC/propidium iodide staining based flow cytometry relative to control; format: functional
UMR108 [30] = test: Growth inhibition of rat UMR108 cells assessed as cell proliferation at 1.5 mg/ml after 72 hrs by MTT assay (reference value: 0.403 +/- 0.009%); format: functional; details: UMR108, 72 h, read-out: Activity
[31] = Growth inhibition of human MM1R cells at […] after 24 hrs relative to control; format: functional; details: MM.1R, read-out: GI

ATP-dependent translocase ABCB1, sequence (P08183 whole entry): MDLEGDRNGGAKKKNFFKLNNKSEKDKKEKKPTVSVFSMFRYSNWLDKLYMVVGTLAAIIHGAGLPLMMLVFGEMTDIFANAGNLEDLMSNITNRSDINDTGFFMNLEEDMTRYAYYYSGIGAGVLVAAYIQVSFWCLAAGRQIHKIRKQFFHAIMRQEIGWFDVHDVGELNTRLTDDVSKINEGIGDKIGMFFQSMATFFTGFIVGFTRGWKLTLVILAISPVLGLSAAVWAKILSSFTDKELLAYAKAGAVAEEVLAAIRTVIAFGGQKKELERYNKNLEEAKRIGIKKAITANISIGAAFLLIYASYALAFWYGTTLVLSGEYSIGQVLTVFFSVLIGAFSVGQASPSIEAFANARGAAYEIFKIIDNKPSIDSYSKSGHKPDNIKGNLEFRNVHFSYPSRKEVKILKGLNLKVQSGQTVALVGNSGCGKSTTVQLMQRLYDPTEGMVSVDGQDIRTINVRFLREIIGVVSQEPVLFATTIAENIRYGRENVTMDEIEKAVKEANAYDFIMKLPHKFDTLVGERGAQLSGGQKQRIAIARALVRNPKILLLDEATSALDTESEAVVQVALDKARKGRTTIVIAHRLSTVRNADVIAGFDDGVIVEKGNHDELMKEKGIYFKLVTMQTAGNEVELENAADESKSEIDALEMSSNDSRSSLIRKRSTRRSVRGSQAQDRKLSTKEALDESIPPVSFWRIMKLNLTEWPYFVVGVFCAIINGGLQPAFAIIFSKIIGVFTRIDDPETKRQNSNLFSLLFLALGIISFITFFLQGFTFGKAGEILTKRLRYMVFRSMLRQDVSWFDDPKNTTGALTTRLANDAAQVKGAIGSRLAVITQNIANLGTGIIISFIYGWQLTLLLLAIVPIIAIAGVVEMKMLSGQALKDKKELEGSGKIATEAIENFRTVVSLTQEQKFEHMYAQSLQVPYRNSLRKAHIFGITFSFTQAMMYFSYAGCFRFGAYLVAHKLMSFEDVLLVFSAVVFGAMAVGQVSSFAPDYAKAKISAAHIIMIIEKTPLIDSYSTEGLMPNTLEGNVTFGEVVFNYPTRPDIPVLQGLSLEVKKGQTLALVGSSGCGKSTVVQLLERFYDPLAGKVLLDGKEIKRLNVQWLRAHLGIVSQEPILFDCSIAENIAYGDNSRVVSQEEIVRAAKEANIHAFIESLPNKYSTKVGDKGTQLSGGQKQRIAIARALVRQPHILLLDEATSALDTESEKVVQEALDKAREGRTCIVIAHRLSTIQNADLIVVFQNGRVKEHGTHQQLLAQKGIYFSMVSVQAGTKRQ

O=C1CCC[C@@H]2[C@H]3CCCN4CCC[C@@H](CN12)[C@@H]34 [MATRINE]
Activity (A549): 20% | Activity (RPMI-8226 [1]): 9.75% | growth inhibition (GI) (HT-29 [2]): 77.14% | Activity (HL-60): 41.1% | growth inhibition (GI) (HT-29 [3]): 58.2% | IC50 (SiHa): 5.76 mM | IC50 (BXPC-3): 2.94 mM | inhibition of growth at 800 µg/mL [4]: 20.5% | inhibition of growth at 16000 µg/mL (HT-29 [5]): 75.8% | Activity (SMMC-7721): 55.1% | growth inhibition (GI) (HT-29 [6]): 54.22% | fold change (FC) [7]: 3.56 | Activity (HepG2): 44.03% | Activity (HeLa): 19.53% | IC50 (C-33-A [8]): 5.92 mM | Activity (PC-3 [9]): 15.1% | IC50 (PANC-1): 0.0286 mM | viability at 5000 µg/mL (M21 [10]): 20% | growth inhibition (GI) (HT-29 [11]): 71.62% | inhibition in vivo at 30 mg/kg (SW480): 13.7% | Activity (PC-3 [12]): 20.5% | inhibition of growth at 2 g/mL (RPMI-8226 [13]): 74% | viability at 2000 µg/mL (KYSE-150 cell line [14]): 53.7% | inhibition of growth at 2000 µg/mL (HT-29 [15]): 52.9% | inhibition of growth at 500 µg/mL [16]: 11.5% | growth inhibition (GI) (HT-29 [17]): 95.29% | IC50 (T-24): 4.6 mM | growth at 1500 µg/mL (UMR108 [18]): 0.205% | Activity (MCF7 [19]): 7.56 - 53.92% | viability at 2500 µg/mL (KYSE-150 cell line [20]): 40.4% | inhibition of growth at 1000 µg/mL (D341 cell line [21]): 28.3% | IC50 (RPMI-8226 [22]): 2250 µg/mL (≈ 9.06 mM) | inhibition of growth at 2000 µg/mL (D341 cell line [23]): 59.3% | Activity (M21 [24]): 24.1% | IC50 (CCRF-CEM): 9.67 mM | growth inhibition (GI) (HT-29 [25]): 57.25% | inhibition of growth at 500 µg/mL (RPMI-8226 [26]): 17.9% | Activity (RD): 26.5% | Activity (MCF7 [27]): 10.86 - 70.23% | Activity (M21 [28]): 34.8% | Activity (C-33-A [29]): 28.91% | growth at 1500 µg/mL (UMR108 [30]): 0.147% | inhibition of growth at 2 g/mL [31]: 74%
